Measured values taken from ChEMBL document CHEMBL4476877, “Treatment of COPD, gastro-esophageal reflux disease (GERD), food allergies and other gastrointestinal conditions and disorders ameliorated by proper histamine management using a combination of histidine decarboxylase inhibitors, LRA drugs, anti-H1 and/or anti-H2 drugs” (2012).
“And” between values parts separate entries of the source, which are not always exact repeats. Equal values may be shown once. The source made the active and inactive calls. The rule behind the calls is not given here.

How the values were obtained:
Homo sapiens [1] = assay: Prevention of food allergy in pediatric patient with history of anaphylaxis due to nut allergy assessed as reduction in constipation at 200 mg dosed daily for 6 months co-administered with 10 mg Montelukast dosed daily; assay type: functional, organism-based
Homo sapiens [2] = assay: Improvement in disease symptoms in GERD patient assessed as improvement in global disease scores at 200 mg dosed daily co-treated with 10 mg anti-H1 drug loratadine dosed daily and 150 mg anti-H2 drug Ranitidine dosed daily; assay type: functional, organism-based
Homo sapiens [3] = assay: Improvement in disease symptoms in GERD patient assessed as improvement in global disease scores at 200 mg dosed daily co-treated with 10 mg anti-H1 drug loratadine dosed daily; assay type: functional, organism-based
Homo sapiens [4] = assay: Prevention of food allergy in pediatric patient with history of anaphylaxis due to nut allergy assessed as reduction in digestive symptoms at 200 mg dosed daily over 8 months co-administered with 10 mg Montelukast dosed daily; assay type: functional, organism-based
Homo sapiens [5] = assay: Improvement in disease symptoms in GERD patient assessed as reduction in cough at 200 mg dosed daily; assay type: functional, organism-based
Homo sapiens [6] = assay: Prevention of food allergy in pediatric patient with history of anaphylaxis due to nut allergy assessed as reduction in diarrhea at 200 mg dosed daily for 6 months co-administered with 10 mg Montelukast dosed daily; assay type: functional, organism-based
Homo sapiens [7] = assay: Prevention of food allergy in pediatric patient with history of anaphylaxis due to nut allergy assessed as reduction in allergic reactions at 200 mg dosed daily for 6 months co-administered with 10 mg Montelukast dosed daily; assay type: functional, organism-based
Homo sapiens [8] = assay: Improvement in disease symptoms in GERD patient assessed as reduction in regurgitation at 200 mg dosed daily co-treated with 10 mg anti-H1 drug loratadine dosed daily and 150 mg anti-H2 drug Ranitidine dosed daily; assay type: functional, organism-based
[9] = target: T1, Histidine decarboxylase (Homo sapiens) (UniProt P19113); assay: Inhibition of recombinant human HDC (1 to 512 residues) expressed in Escherichia coli BL21 (DE3) pLysS assessed as reduction in [14C]CO2 production from L-[U-14C]histidine at 10 uM relative to untreated control
T1 sequence (whole entry): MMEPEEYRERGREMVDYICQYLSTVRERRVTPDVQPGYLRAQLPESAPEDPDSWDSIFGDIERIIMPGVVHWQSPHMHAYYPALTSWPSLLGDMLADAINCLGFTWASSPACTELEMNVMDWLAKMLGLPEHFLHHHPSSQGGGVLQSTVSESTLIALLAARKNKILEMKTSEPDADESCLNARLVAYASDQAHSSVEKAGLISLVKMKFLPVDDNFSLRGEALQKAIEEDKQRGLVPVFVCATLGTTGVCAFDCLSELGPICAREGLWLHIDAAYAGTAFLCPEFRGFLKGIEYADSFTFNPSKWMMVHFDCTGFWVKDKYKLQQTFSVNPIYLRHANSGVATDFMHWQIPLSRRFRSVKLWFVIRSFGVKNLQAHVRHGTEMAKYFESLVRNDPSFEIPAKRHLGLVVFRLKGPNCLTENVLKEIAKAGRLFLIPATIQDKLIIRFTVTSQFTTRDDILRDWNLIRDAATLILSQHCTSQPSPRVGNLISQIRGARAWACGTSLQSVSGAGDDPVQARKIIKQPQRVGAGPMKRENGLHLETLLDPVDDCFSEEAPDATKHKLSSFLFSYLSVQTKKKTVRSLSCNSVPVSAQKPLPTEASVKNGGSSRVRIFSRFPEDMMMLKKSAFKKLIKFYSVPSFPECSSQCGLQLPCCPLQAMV

Homo sapiens [10] = assay: Prevention of food allergy in pediatric patient with history of anaphylaxis due to nut allergy assessed as reduction in allergic reactions at 200 mg dosed daily for 6 weeks co-administered with 10 mg Montelukast dosed daily; assay type: functional, organism-based
Homo sapiens [11] = assay: Improvement in disease symptoms in GERD patient assessed as reduction in cough at 200 mg dosed daily co-treated with 150 mg anti-H2 drug Ranitidine dosed daily; assay type: functional, organism-based
Homo sapiens [12] = assay: Prevention of food allergy in patient with history of anaphylaxis due to allergens assessed as reduction in allergy symptoms at 200 mg dosed daily for 6 to 8 weeks co-administered with 10 mg Montelukast dosed daily; assay type: functional, organism-based
Homo sapiens [13] = assay: Improvement in disease symptoms in GERD patient assessed as reduction in regurgitation at 200 mg dosed daily co-treated with 10 mg anti-H1 drug loratadine dosed daily; assay type: functional, organism-based
Homo sapiens [14] = assay: Improvement in disease symptoms in GERD patient assessed as reduction in heartburns at 200 mg dosed daily co-treated with 10 mg anti-H1 drug loratadine dosed daily and 150 mg anti-H2 drug Ranitidine dosed daily; assay type: functional, organism-based
Homo sapiens [15] = assay: Improvement in disease symptoms in GERD patient assessed as reduction in heartburns at 200 mg dosed daily co-treated with 150 mg anti-H2 drug Ranitidine dosed daily; assay type: functional, organism-based
Homo sapiens [16] = assay: Improvement in disease symptoms in GERD patient assessed as reduction in cough at 200 mg dosed daily co-treated with 10 mg anti-H1 drug loratadine dosed daily; assay type: functional, organism-based
Homo sapiens [17] = assay: Improvement in disease symptoms in GERD patient assessed as reduction in cough at 200 mg dosed daily co-treated with 10 mg anti-H1 drug loratadine dosed daily and 150 mg anti-H2 drug Ranitidine dosed daily; assay type: functional, organism-based
Homo sapiens [18] = assay: Prevention of food allergy in patient with history of anaphylaxis due to allergens assessed as reduction in allergy symptoms to pea nut ingestion at 200 mg dosed daily for 8 months co-administered with 10 mg Montelukast dosed daily; assay type: functional, organism-based
Homo sapiens [19] = assay: Improvement in disease symptoms in GERD patient assessed as reduction in heartburns at 200 mg dosed daily co-treated with 10 mg anti-H1 drug loratadine dosed daily; assay type: functional, organism-based
Homo sapiens [20] = assay: Improvement in disease symptoms in GERD patient assessed as improvement in global disease scores at 200 mg dosed daily; assay type: functional, organism-based
Homo sapiens [21] = assay: Improvement in disease symptoms in GERD patient assessed as reduction in regurgitation at 200 mg dosed daily co-treated with 150 mg anti-H2 drug Ranitidine dosed daily; assay type: functional, organism-based
Homo sapiens [22] = assay: Improvement in disease symptoms in GERD patient assessed as reduction in heartburns at 200 mg dosed daily; assay type: functional, organism-based
Homo sapiens [23] = assay: Prevention of food allergy in patient with history of anaphylaxis due to ingestion of shrimps assessed as reduction in allergy symptoms at 200 mg dosed daily for 6 weeks co-administered with 10 mg Montelukast dosed daily; assay type: functional, organism-based
Homo sapiens [24] = assay: Prevention of food allergy in pediatric patient with history of anaphylaxis due to nut allergy assessed as reduction in allergic symptoms at 200 mg dosed daily over 8 months co-administered with 10 mg Montelukast dosed daily; assay type: functional, organism-based
Homo sapiens [25] = assay: Improvement in disease symptoms in GERD patient assessed as reduction in regurgitation at 200 mg dosed daily; assay type: functional, organism-based
Homo sapiens [26] = assay: Improvement in disease symptoms in GERD patient assessed as improvement in global disease scores at 200 mg dosed daily co-treated 150 mg anti-H2 drug Ranitidine dosed daily; assay type: functional, organism-based
Homo sapiens [27] = assay: Prevention of food allergy in pediatric patient with history of anaphylaxis due to nut allergy assessed as reduction in stomach pain at 200 mg dosed daily for 6 months co-administered with 10 mg Montelukast dosed daily; assay type: functional, organism-based
Homo sapiens [28] = species on record: Homo sapiens; assay: Improvement in disease symptoms in patient with COPD assessed as TEV level at 200 mg/day co-treated with 10 mg/day Loratadine and measured after 6 weeks by spirometry (reference value: 1.2 L/secs); assay type: functional
Homo sapiens [29] = species on record: Homo sapiens; assay: Improvement in disease symptoms in patient with COPD assessed as TEV level at 200 mg/day co-treated with 10 mg/day Loratadine and measured after 6 months by spirometry (reference value: 1.4 L/secs); assay type: functional
Homo sapiens [30] = species on record: Homo sapiens; assay: Improvement in disease symptoms in patient with COPD assessed as TEV level at 200 mg/day co-treated with 10 mg/day Loratadine and measured after 6 weeks by spirometry (reference value: 1.4 L/secs); assay type: functional
Homo sapiens [31] = species on record: Homo sapiens; assay: Improvement in disease symptoms in patient with COPD assessed as TEV level at 200 mg/day co-treated with 10 mg/day Loratadine and measured after 6 months by spirometry (reference value: 1.5 L/secs); assay type: functional
Homo sapiens [32] = species on record: Homo sapiens; assay: Improvement in disease symptoms in patient with COPD assessed as TEV level at 200 mg/day co-treated with 10 mg/day Loratadine and measured after 12 months by spirometry (reference value: 1.8 L/secs); assay type: functional
Homo sapiens [33] = assay: Improvement in disease symptoms in GERD patient assessed as improvement in disease symptoms at 200 mg dosed daily co-treated with 10 mg anti-H1 drug loratadine dosed daily relative to control; assay type: functional
Homo sapiens [34] = species on record: Homo sapiens; assay: Improvement in disease symptoms in patient with COPD assessed as TEV level at 200 mg/day co-treated with 10 mg/day Loratadine and measured after 6 weeks by spirometry relative to control; assay type: functional
Homo sapiens [35] = species on record: Homo sapiens; assay: Improvement in disease symptoms in patient with COPD assessed as TEV level at 200 mg/day co-treated with 10 mg/day Loratadine and measured after 10 months by spirometry (reference value: 0.4 L/secs); assay type: functional
Homo sapiens [36] = species on record: Homo sapiens; assay: Improvement in disease symptoms in patient with COPD assessed as TEV level at 200 mg/day co-treated with 10 mg/day Loratadine and measured after 6 weeks by spirometry (reference value: 0.4 L/secs); assay type: functional
Homo sapiens [37] = assay: Improvement in disease symptoms in GERD patient assessed as improvement in disease symptoms at 200 mg dosed daily co-treated with 10 mg anti-H1 drug loratadine dosed daily and 150 mg anti-H2 drug Ranitidine dosed daily; assay type: functional
Homo sapiens [38] = species on record: Homo sapiens; assay: Improvement in disease symptoms in patient with COPD assessed as increase in TEV level at 200 mg/day co-treated with 10 mg/day Loratadine and measured after 8 months by spirometry relative to untreated control; assay type: functional
Homo sapiens [39] = species on record: Homo sapiens; assay: Improvement in disease symptoms in patient with COPD assessed as TEV level at 200 mg/day co-treated with 10 mg/day Loratadine and measured after 6 months by spirometry (reference value: 0.4 L/secs); assay type: functional
Homo sapiens [40] = species on record: Homo sapiens; assay: Improvement in disease symptoms in patient with COPD assessed as TEV level at 200 mg/day co-treated with 10 mg/day Loratadine and measured after 6 weeks by spirometry (reference value: 1.8 L/secs); assay type: functional
Homo sapiens [41] = species on record: Homo sapiens; assay: Improvement in disease symptoms in patient with COPD assessed as TEV level at 200 mg/day co-treated with 10 mg/day Loratadine and measured after 6 weeks by spirometry (reference value: 1.5 L/secs); assay type: functional
Homo sapiens [42] = species on record: Homo sapiens; assay: Improvement in disease symptoms in patient with COPD assessed as TEV level at 200 mg/day co-treated with 10 mg/day Loratadine and measured after 12 months by spirometry (reference value: 1.5 L/secs); assay type: functional
Homo sapiens [43] = species on record: Homo sapiens; assay: Improvement in disease symptoms in patient with COPD assessed as TEV level at 200 mg/day co-treated with 10 mg/day Loratadine and measured after 6 months by spirometry (reference value: 1.2 L/secs); assay type: functional
Homo sapiens [44] = species on record: Homo sapiens; assay: Improvement in disease symptoms in patient with COPD assessed as increase in TEV level at 200 mg/day co-treated with 10 mg/day Loratadine and measured after 10 months by spirometry relative to untreated control; assay type: functional
Homo sapiens [45] = species on record: Homo sapiens; assay: Improvement in disease symptoms in patient with COPD assessed as TEV level at 200 mg/day co-treated with 10 mg/day Loratadine and measured after 6 months by spirometry (reference value: 1.8 L/secs); assay type: functional
Homo sapiens [46] = species on record: Homo sapiens; assay: Improvement in disease symptoms in patient with COPD assessed as TEV level at 200 mg/day co-treated with 10 mg/day Loratadine and measured after 8 months by spirometry (reference value: 1.4 L/secs); assay type: functional

CCOc1c(N)c2c(c(OCC)c1OCC)C(C1c3c(cc4c(c3OC)OCO4)CCN1C)OC2=O (configuration not stated)
Activity (Homo sapiens [1]): Active | Activity (Homo sapiens [2]): Active | Activity (Homo sapiens [3]): Active | Activity (Homo sapiens [4]): Active | Activity (Homo sapiens [5]): inactive | Activity (Homo sapiens [6]): Active | Activity (Homo sapiens [7]): Active | Activity (Homo sapiens [8]): Active | inhibition [9]: 36.5% and 27.9% | Activity (Homo sapiens [10]): Active | Activity (Homo sapiens [11]): Active | Activity (Homo sapiens [12]): Active | Activity (Homo sapiens [13]): Active | Activity (Homo sapiens [14]): Active | Activity (Homo sapiens [15]): Active | Activity (Homo sapiens [16]): Active | Activity (Homo sapiens [17]): Active | Activity (Homo sapiens [18]): Active | Activity (Homo sapiens [19]): Active | Activity (Homo sapiens [20]): inactive | Activity (Homo sapiens [21]): Active | Activity (Homo sapiens [22]): inactive | Activity (Homo sapiens [23]): Active | Activity (Homo sapiens [24]): Active | Activity (Homo sapiens [25]): inactive | Activity (Homo sapiens [26]): Active | Activity (Homo sapiens [27]): Active

CCOc1c(N)c2c(c(OCC)c1OCC)C(C1c3c(cc4c(c3OC)OCO4)CCN1C)OC2=O (racemic)
inhibition [9]: 17.5%

CCOc1c(N)c2c(c(OCC)c1OCC)C(C1c3c(cc4c(c3OC)OCO4)CCN1C)OC2=O (configuration not stated) [TRITOQUALINE]
Activity (Homo sapiens [28]): 1.8 L/s | Activity (Homo sapiens [29]): 2.1 L/s | Activity (Homo sapiens [30]): 1.7 L/s | Activity (Homo sapiens [31]): 1.9 L/s | Activity (Homo sapiens [32]): 2.6 L/s | Activity (Homo sapiens [33]): 82.9% | Activity (Homo sapiens [34]): 71.4% | Activity (Homo sapiens [35]): 0.9 L/s | Activity (Homo sapiens [36]): 0.6 L/s | Activity (Homo sapiens [37]): 209.5% | Activity (Homo sapiens [38]): 71.4% | Activity (Homo sapiens [39]): 0.8 L/s | Activity (Homo sapiens [40]): 2.1 L/s | Activity (Homo sapiens [41]): 1.7 L/s | Activity (Homo sapiens [42]): 2 L/s | Activity (Homo sapiens [43]): 1.9 L/s | Activity (Homo sapiens [44]): 125% | Activity (Homo sapiens [45]): 2.1 L/s | Activity (Homo sapiens [46]): 2.4 L/s
